Data from patent US20050234030A1, “Modulators of CRTH2, COX-2 and FAAH” (priority 2004, published 2005).

| SMILES | melting point [°C] |
| --- | --- |
| COc1ccc2c(c1)c(CC(=O)O)c(C)n2C(=O)C1CCCCC1 [[1-(cyclohexylcarbonyl)-5-methoxy-2-methyl-1H-indol-3-yl]acetic acid] | 129 |
| COc1cc2c(CC(=O)O)c(C)n(C(=O)C3CCCCC3)c2cc1F [[1-(cyclohexylcarbonyl)-6-fluoro-5-methoxy-2-methyl-1H-indol-3-yl]acetic acid] | 104 |

Now from value to compound:

| melting point [°C] | SMILES |
| --- | --- |
| 235 | Cc1c(CC(=O)O)c2cc(O)ccc2n1C(=O)N1CCCCC1 [[5-hydroxy-2-methyl-1-(piperidin-1-ylcarbonyl)-1H-indol-3-yl]acetic acid] |
| 219 | Cc1c(CC(=O)O)c2cc(O)c(F)cc2n1C(=O)c1cccs1 [[6-fluoro-5-hydroxy-2-methyl-1-(thien-2-ylcarbonyl)-1H-indol-3-yl] acetic acid] |
| 137 | COc1cc2c(CC(=O)O)c(C)n(C(=O)c3cccs3)c2cc1F [[6-fluoro-5-methoxy-2-methyl-1-(thien-2-ylcarbonyl)-1H-indol-3-yl]acetic acid] |
